The source of these data is US12415939B2, “Nano-adhesive and surface primer compound and use thereof” (The Regents of the University of California, priority 2015, dated 2025).

A short description of assay [1]: AFM adhesion force runs with silica probe on Z-Cat-C10 coated silicon wafer. Format: physicochemical. On the procedure:
AFM force runs were measured with and without Z-Cat-C10 on silicon wafer and copper plate, respectively, vs. silicon dioxide probe. Underwater force run was conducted for the surface prepared subsequently after spreading the 5 mM Z-Cat-C10, waiting for 2 min, rinsing thoroughly with degassed DI water thoroughly for 3 times. Dry force run was performed after ˜5 min dry of the surface prepared as for the underwater force run. […] Cantilever spring constant (K) for #=10 μm silica tip on silicon wafer and copper plate with Z-Cat-C10, was 0.1 N m^−1.
The measured adhesion, Fa, force (minimum of the potential well of the F vs. D curves obtained from AFM measurements) is related to the adhesion energy per unit area by Wa=Fa/2πR for rigid surfaces with weak adhesive interactions, and by Wa=Fa/1.5πR (used in this study) for soft deformable surfaces with strong adhesion or cohesion. Since copper surface (RMS˜2 nm) is rougher than silicon wafer (RMS<1 nm), the Wa on copper surface was comparatively weaker than the Wa of silicon wafer. Hydroxide/oxide on copper surface also weakens the adhesion to copper plate compared to just oxide on silicon wafer (see FIGS. 18-23). […]
The adhesion/cohesion energy of the synthetic zwitterionic molecules was investigated in SFA (SurForce LLC, Santa Barbara, CA). Two molecularly smooth freshly cleaved back silvered mica surfaces glued on cylindrical silica discs of radius of curvature, R˜2 cm, were mounted in the SFA and 50 μL of a colloidal dispersion of the synthetic molecules in DI water were injected between the surfaces at different concentrations (C=0.5-5 mM) and the forces between the thin films of the molecules were measured by Multiple Beam Interferometry (MBI). The adhesion forces between Z-Cat-C10 molecules on various surfaces, e.g., silica and copper, were also measured by AFM (MFP-3D, Asylum research, Goleta, CA) in DI water and ambient conditions, respectively, at room temperature. […] Cantilever spring constants were measured for each force run. […]

A short description of assay [2]: Lap joint bending peel test. The method, then:
Below are the detailed methods following in sequential order in time: • 1) The aqueous Z-Cat-C10 solution was prepared at 100 mg ml^−1 concentration (very turbid solution at room temperature) (FIG. 10A test-tube on the left). • 2) The solution was centrifuged at 3000 rpm (805×g) for 5 min to expedite the process of liquid-liquid phase separation (FIG. 10A test-tubes in the middle and the right). 3) The lower dense coacervate phase was collected in a syringe (FIG. 24A) and injected (spread, ˜10 μl) over a steel plate immersed in water i.e., artificial sea water, aqueous periodate solution, and DI water, respectively (FIG. 24B). • 4) Another steel plate glued onto the steel plate with coacervates on as a lap joint (cross-sectional area 2.54 cm×2.54 cm. • 5) The each lap joint was loaded (250 g) for 12 h of compressive setting (FIG. 24C). • 6) The lap joint bending peel test was conducted underwater for each lap joint prepared in artificial seawater, aqueous periodate solution, and DI water, respectively (FIGS. 24D-24F). • 7) The lap joint bending peel test was conducted dry ambient condition for the lap joint prepared in the periodate solution after 12 h drying in ambient condition Standard Three Point Bending Peel Test
The catecholic zwitterions were inspired by interfacial proteins (mfp-3 and -5) that function as adhesive primers, but not as bulk adhesives. To determine whether Z-Cat-C10 is limited to surface binding or develops measurable bulk cohesion (thickness […]), bulk rupture tests were done using a peeling-by-bending test to better mimic the role that interfacial proteins play in resisting plaque detachment as well as lap-shear bonding test. Lap joints were prepared by gluing two steel plates (SS304) immersed in water using the lower dense coacervate (˜10 μl) (FIGS. 24A-24H). The lap joint (cross-sectional area=2.54 cm×2.54 cm) prepared in artificial seawater or periodate solution, respectively, held a load up to 3 N underwater. […] After 12 h ambient drying, the joint prepared in 1 M periodate solution held much higher load, 11 N: Standard three point bending peel strength of the lap joint (cross-sectional area=2.54 cm×1.27 cm) was measured under ambient dry conditions after drying 12 h. […] Shear bonding strength of the lap joint (cross-sectional area=2.54 cm×2.54 cm) was also measured, 1.1 MPa (standard deviation=0.3, n=4)—similar to Dopa-functionalized polypeptide prepared under ambient dry conditions, 0.9 MPa. […] Nevertheless, the results present that the zwitterionic surfactants were capable of micro-gap-filling as well as nano-gap-filling shown in AFM and SFA, and indicate that they are more versatile than surface primers. The results also attest to the self-assembling ability of Z-Cat-C10 (FIGS. 13A-13C, double bilayer structure).

A value given as a limit tells only on which side of the number the result lay.

`CN(C)CCOP(=O)(O)OCCCc1ccc(O)c(O)c1` [Z-Cat-C10]: in assay [1] (SiO2 and SiO2 surfaces), the “dry Wad relative to catecholic polysiloxane” value came to 50 fold. The “adhesion Wad after air-drying” value in assay [1] (air-dried ~5 min, SiO2 and SiO2 surfaces) was around 175 mJ m^−2. Also, the “wet work of adhesion Wad” value in assay [1] (underwater, SiO2 and SiO2 interface, 5 mM coating) was around 7.7 mJ m^−2. The “load held by lap joint” value was at most 1.1 kg in assay [2] (dry ambient conditions (Z-Cat-C10 joint prepared in aqueous periodate)); 11 N in assay [2] (prepared in 1 M periodate, after 12 h ambient drying); 1 N in assay [2] (prepared in DI water); “up to 3 N” in assay [2] (underwater, prepared in artificial seawater or periodate solution).
